Measurements taken from PMC11205114, “A Multiomics Perspective on Plant Cell Wall-Degrading Enzyme Production: Insights from the Unexploited Fungus Trichoderma erinaceum” (Journal of Fungi, 2024).

Columns and labels:
[1] = molecular target: T1, TrCel3B (Trichoderma reesei, UniProt G0RJ07); assay: pNPG hydrolysis, pNP release at […] nm; type: biochemical; settings: pNPG substrate (5 mM stock), pH 4.5, 60 °C
T1 construct: gene cel3b; gene 2622 bp, 96 kDa
T1 sequence (G0RJ07 19-874): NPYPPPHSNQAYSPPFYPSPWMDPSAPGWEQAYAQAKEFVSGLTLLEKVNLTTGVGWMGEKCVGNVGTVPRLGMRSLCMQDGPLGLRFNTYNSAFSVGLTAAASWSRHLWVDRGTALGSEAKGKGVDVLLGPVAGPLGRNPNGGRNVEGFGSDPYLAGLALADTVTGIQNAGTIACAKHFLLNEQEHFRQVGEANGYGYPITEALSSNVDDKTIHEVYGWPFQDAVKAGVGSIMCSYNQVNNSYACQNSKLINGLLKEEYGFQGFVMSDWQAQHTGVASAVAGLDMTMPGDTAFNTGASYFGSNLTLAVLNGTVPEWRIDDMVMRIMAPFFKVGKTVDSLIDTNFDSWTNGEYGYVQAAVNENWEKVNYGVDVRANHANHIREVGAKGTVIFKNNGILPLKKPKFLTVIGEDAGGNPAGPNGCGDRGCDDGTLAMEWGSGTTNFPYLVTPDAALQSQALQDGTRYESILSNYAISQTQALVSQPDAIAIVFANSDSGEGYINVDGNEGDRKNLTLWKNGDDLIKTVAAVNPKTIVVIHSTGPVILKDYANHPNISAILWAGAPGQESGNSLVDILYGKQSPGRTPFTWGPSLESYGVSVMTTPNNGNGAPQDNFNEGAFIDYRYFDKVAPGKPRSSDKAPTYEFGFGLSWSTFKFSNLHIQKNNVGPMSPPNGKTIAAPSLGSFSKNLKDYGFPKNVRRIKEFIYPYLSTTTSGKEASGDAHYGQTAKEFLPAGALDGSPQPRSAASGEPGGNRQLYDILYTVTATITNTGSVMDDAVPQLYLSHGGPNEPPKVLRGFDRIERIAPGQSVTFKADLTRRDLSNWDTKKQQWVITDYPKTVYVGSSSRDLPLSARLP

[2] = molecular target: T1, TrCel3B; assay: pNP release at […] nm; type: biochemical; settings: pH 5.5, 50 °C (methods; figure legend 60 °C), 30 min

OC[C@H]1OC(O)[C@H](O)[C@@H](O)[C@@H]1O (some centres unmarked) [glucose]
% inhibition [1]: TeBgl3C showed a slightly higher tolerance to glucose than TrCel3B

O=[N+]([O-])c1ccc(O[C@@H]2O[C@H](CO)[C@@H](O)[C@H](O)[C@H]2O)cc1 [4-nitrophenyl β-D-glucopyranoside]
pNP release at 405 nm [2]: TeBgl3C and TrCel3B displayed the highest specific activities on pNPG
